The source of these data is article PMC12346198 (Cancers, 2025).

Data set [1] is described as follows: Pharmacokinetic modeling of valine pro-drug conversion to parent. Format: in vivo, mice. From the text:
A total of 36 mice with available PK data were included for non-linear mixed-effects analysis using NONMEM (version 7.5.0, ICON Development Solutions, Ellicott City, MD, USA), implementing the first-order conditional estimation with interaction (FOCE-I). R (version 4.2.0, R Foundation for Statistical Computing, Vienna, AUT, http://www.r-project.org) was used for visual diagnostics. […] The analyte (valine conjugate and parent compound) plasma concentration–time data were confirmed to have a biphasic distribution and elimination and were therefore fit separately to a linear two-compartment model with a depot for oral administration. Each model was parametrized in terms of clearance (CL), the volume of distribution of the central compartment (V1), intercompartmental clearance (Q), and the volume of the peripheral compartment (V3). Interindividual variability (IIV) for each parameter was assumed to be log-normally distributed, and residual variability (RUV) was described with a proportional error model. The PK parameter estimates from these independent models (parent compound or valine conjugate) were used as initial estimates for a combined model describing the conversion and disposition of the valine conjugate to the parent drug and associated metabolites. The model estimated the fraction of pro-drug converted to parent drug (Fm), which was used to calculate the first-order rate constant of metabolite formation (Kmet) = Fm × Kel. This rate constant was used to calculate the half-life of the conversion process and the amount of metabolite formed at complete conversion. The rate of metabolite formation was then calculated as the ratio of the amount of metabolite formed to the time required for complete conversion (~5 half-lives), as detailed in Figures S8–S11.

A short description of data set [2]: Single-dose IV and PO pharmacokinetics in mice. Format: in vivo, male C57BL/6 mice. The note with it: for AUC: analyte = dosed compound; for Cmax: read-out: Cmax, Geo Mean; for Tmax: read-out: Tmax, Geo Mean. The method, then: The in-life study and quantitative analysis of plasma samples using LC/MS were performed at Charles River Laboratories, Inc. (Wilmington, MA, USA).

The nature of data set [3]: Thermodynamic solubility in fasted-state simulated intestinal fluid (FaSSIF). The class given is physicochemical. The following applies: pH 6.5, LLOQ < 1.56 µM. The method, then:
The thermodynamic solubility analysis in biological media and the quantitative analysis of samples were performed according to the standard protocol at WuXi AppTec (Shanghai, China).

[4] abbreviates: PO, 40 mg/kg (valine conjugates 40 mg/kg EQV).

Where two headings read alike, the source gives them in different places.

On to `CC(C)[C@H](N)C(=O)Oc1ccc(Cl)cc1C(=O)Nc1ccc(C(F)(F)F)cc1` [valine–compound #11], for which the k el in data set [1] (C57BL/6, mouse, plasma, model estimate, read-out: Kel, elimination rate constant of valine conjugate (converted)) was 0.00853 s⁻¹. In data set [1] (Kmet = Fm × Kel), the “Kmet, rate constant of conversion to parent compound” value worked out at 11.9 h⁻¹. Moreover, the “Fraction of pro-drug converted to parent (Fm)” value in data set [1] (two-compartment model estimate) is recorded as 39%. Also, the “HL_Lambda_z, Geo Mean” value came to 1.94 h in data set [2] (IV, 2 mg/kg (valine conjugates 2 mg/kg EQV)) and 5.77 h in data set [2] (setting [4]). For the same compound, in data set [2] (IV, 2 mg/kg (valine conjugates 2 mg/kg EQV), non-compartmental analysis), the “IV: Clobs, Geo Mean” value turned out to be 0.004 L/h. In data set [2] (setting [4]), the “PO: Cl_Fobs, Geo Mean” value was 0.59 L/h. Moreover, the AUC in data set [2] (male, C57BL/6, mouse, plasma, iv, 2 mg/kg, IV, 2 mg/kg (valine conjugates 2 mg/kg EQV), non-compartmental analysis, read-out: AUCall, Geo Mean) is 36.1 µM·h; in data set [2] (male, C57BL/6, mouse, plasma, po, 40 mg/kg, PO, 40 mg/kg (valine conjugates 40 mg/kg EQV), non-compartmental analysis, read-out: AUCall, Geo Mean), 4.17 µM·h; in data set [2] (male, C57BL/6, mouse, plasma, po, 40 mg/kg, single PO dose, 40 mg/kg or molar equivalent, read-out: AUCall following an oral dose), 4.17 µM·h. Further, the Cmax in data set [2] (male, C57BL/6, mouse, plasma, iv, 2 mg/kg, IV, 2 mg/kg (valine conjugates 2 mg/kg EQV)) was 20.2 µM; in data set [2] (male, C57BL/6, mouse, plasma, po, 40 mg/kg, PO, 40 mg/kg (valine conjugates 40 mg/kg EQV)), 0.99 µM. Further, the Tmax in data set [2] (male, C57BL/6, mouse, plasma, IV, 2 mg/kg (valine conjugates 2 mg/kg EQV)) is 23.4 min; in data set [2] (male, C57BL/6, mouse, plasma, PO, 40 mg/kg (valine conjugates 40 mg/kg EQV)), 60 min. Also, the clearance in data set [2] (male, C57BL/6, mouse, plasma, single IV dose, 2 mg/kg or molar equivalent, read-out: Systemic clearance following an IV dose (converted)) is 0.0667 mL/min. This compound also registered a thermodynamic solubility in data set [3] of less than 1.56 µM.

One may read the Cmax as the highest concentration seen after dosing. Usually Tmax stands for the time from dosing to the highest level. The thermodynamic solubility is solubility found after equilibrating the solid with the medium.
